Legend:
[1] = Intestinal stability, human intestinal S9; format: in vitro ADME
Protocol: (§1) The stability of compounds 1 and 2, and the control compound 7-hydroxycoumarin, were measured using human, rat, and mouse intestinal S9 fractions (Xenotech). Test compound working solutions were prepared by diluting 5 μL of 10 mM stock solutions in DMSO with 495 μL AN. S9 solutions were prepared by diluting the obtained S9 solutions to 1.0 mg/mL in 100 mM potassium phosphate buffer at pH 7.4 containing 10 mM D-saccharic acid-1,4-lactone. An Apricot automation workstation was used to add 100 μL/well of S9 solution to all reaction plates (Blank, T0, T5, T15, T30, T45, T60 and NCF60); 2 μL/well of compound working solutions were added to all 96-well reaction plates except the blank (T0, T5, T15, T30, T45, T60, and NCF60); 600 μL/well of stop solution (4° C. ACN containing 200 ng/mL tolbutamide and 200 ng/mL labetalol as internal standards) was added to the T0 reaction plate; all plates were pre-incubated at 37° C. for 10 minutes; a cofactor regenerating system (98 μL/well) was added, excluding the NCF60 plate which instead received 98 μL/well of 100 mM potassium phosphate buffer. All plates were then incubated at 37° C. To terminate reactions, 600 μL/well of stop solution was applied at specific end time points. After sealing and a 10-minute shaking, plates were centrifuged at 4000 rpm and 4° C. for 20 minutes. Concurrently, 300 μL/well of HPLC grade water was loaded onto eight new 96-well bioanalysis plates. Post-centrifugation, 100 μL supernatant from each reaction plate was transferred to its corresponding bioanalysis plate, shaken for 10 minutes, and then subjected to LC-MS/MS analysis (Shimadzu LC-40D LC system coupled to a Sciex Qtrap 6500 Plus mass spectrometer, using both positive and negative ion modes).

[2] = Intestinal stability, mouse intestinal S9; format: in vitro ADME; details: intestinal S9 fraction
Protocol: as §1

[3] = Intestinal stability, rat intestinal S9; format: in vitro ADME
Protocol: as §1

[4] = Conjugate formation in intestinal S9 incubations; format: in vitro ADME, human, rat, mouse
Protocol: as §1, with “Concurrently, 300 μL/well of HPLC grade water was loaded onto eight new 96-well bioanalysis plates. Post-centrifugation, 100 μL supernatant from each reaction plate was transferred to its corresponding bioanalysis plate, shaken for 10 minutes, and then subjected to LC-MS/MS analysis (Shimadzu LC-40D LC system coupled to a Sciex Qtrap 6500 Plus mass spectrometer, using both positive and negative ion modes).” left out

[5] = Pharmacokinetics in the rat, dosing in solution; details: rat, in vivo, 25 mg/kg
[6] = Pharmacokinetics in the rat, solid form (powder in mini-capsules); format: in vivo; details: rat, in vivo
[7] = log P; format: physicochemical
[8] = tested on: Myh6-Cre:FLNC^wt/F mouse; assay: FLNC knockout model, echocardiography; format: in vivo; details: 50 mg/Kg/day by gavage for 6 weeks
Protocol: The LMNA^H222P/H222P mouse is a well-established model for studying dilated cardiomyopathy and heart failure, with cardiac dysfunction typically beginning to manifest at around 16 weeks of age. In this study, 16-week-old LMNA^H222P/H222P mice underwent baseline echocardiography prior to treatment. Compound 2 was then administered continuously for 4 weeks using osmotic pumps, with DMSO as the vehicle control. At the end of the treatment period, echocardiography was performed again to assess the impact of compound 2 on cardiac function compared to the control group. […] In a FLNC knockout model using the Myh6-Cre:FLNC^wt/F mouse, 16-week-old mice underwent baseline echocardiography, were treated with compound 2 at 50 mg/Kg/day or vehicle by gavage for 6 weeks, and underwent echocardiography to assess the change in cardiac function. […] The genistein phosphate derivatives of this invention are therefore expected to be useful for the treatment of subjects with dilated cardiomyopathy.

[9] = tested on: mdx mice; assay: mdx mice, blood cytokine analysis; format: in vivo, mouse; details: 20 mg/Kg/day by gavage, four-month-old mdx mice
Source text: Dis., 21, 579-589 (2011), “Duchenne muscular dystrophy (DMD) is the most common lethal X-linked recessive disorder, affecting 1 in 3500 live male births. DMD children show early symptoms of muscle degeneration, frequently develop contractures, and lose the ability to walk by 13 years of age. With disease. progression, most patients succumb to death from respiratory failure and cardiac dysfunction in early adulthood. The primary cause of this disease stems from the lack of the protein dystrophin, which is essential for the structural and functional integrity of muscle membrane. Dystrophin absence results in membrane damage, allowing massive infiltration of immune cells, chronic inflammation, necrosis, and severe muscle degeneration . . . . […] The genistein phosphate derivatives of this invention are therefore expected to be useful for the treatment of subjects with Duchenne muscular dystrophy.

[10] = tested on: chondrocyte pellets differentiated from human mesenchymal stem cells (MSCs); assay: Mini-joint model, IL-1β inflamed chondrocyte pellets, PCR analysis; format: cell-based; details: up to 5 μM with 0.01 ng/mL IL-1β for 3 days
Protocol: In the mini-joint model, human mesenchymal stem cells (MSCs) were differentiated into chondrocytes in pellet culture over a period of 3 weeks. The chondrocyte pellets were then maintained in a medium containing 0.5 ng/mL of TGF-β for 1 week. Inflammation was induced by treating the pellets with 1 ng/mL of IL-1β for 1 day. Following this, the pellets were treated with compound 2 at up to 5 μM together with 0.01 ng/mL of IL-1β to sustain the inflammatory environment for 3 days. At the conclusion of the treatment, the pellets were collected for PCR analysis.

[11] = tested on: mice with cerulein-induced acute edematous pancreatitis; assay: Cerulein model of acute edematous pancreatitis; format: in vivo, mouse; details: 100 mg/Kg by gavage 30 minutes after first and fourth cerulein injections; initial findings
Protocol: Using the cerulein model, acute edematous pancreatitis was induced in two test groups of mice by eight hourly intraperitoneal injections of 50 μg/Kg cerulein, with control group mice receiving injections of physiological saline. Compound 2, at 100 mg/Kg, was administered to one of the cerulein groups by gavage 30 minutes after the first and fourth cerulein injections. Mice were sacrificed one hour after the last injection and tissues were collected for histological analysis. […] Recurrent acute pancreatitis (RAP) and chronic pancreatitis (CP) were induced by repetitive cerulein injections every third day over a span of 14 days (RAP) or 6 weeks (CP). Compound 2 was administered daily at 50 mg/Kg on the last 10 consecutive days for RAP and at 100 mg/Kg on the last 4 weeks for CP, with vehicle controls. Mice were sacrificed 1 day after the last cerulein injection and tissues were collected for histological analysis. In the CP model, the cerulein injections induced extensive acinar cell damage.

[12] = intestinal S9 fraction, pH 7.4, read-out: intrinsic clearance rate

SMILES: O=c1c(-c2ccc(O)cc2)coc2cc(OCOP(=O)(O)O)cc(O)c12 [Compound 2, ((5-Hydroxy-3-(4-hydroxyphenyl)-4-oxo-4H-chromen-7-yl)oxy)methyl dihydrogen phosphate]
- normalized control factor remaining [1]: 56.6%
- half-life at 1 µM ([1]; intestinal S9 fraction, pH 7.4): 26.8 min
- microsomal CLint at 1 µM [1, 12]: 51.7 µL/min/mg
- half-life at 1 µM ([2]; pH 7.4): 68.1 min
- microsomal CLint at 1 µM ([2]; pH 7.4, read-out: intrinsic clearance rate): 20.3 µL/min/mg
- normalized control factor remaining [3]: 68.6%
- half-life at 1 µM ([3]; intestinal S9 fraction, pH 7.4): 48.3 min
- microsomal CLint at 1 µM [3, 12]: 28.7 µL/min/mg
- formation of glucuronidation, sulfation, and glutathione conjugates [4]: noticeable absence
- Cmax ([5]; male, SD): ~30 ng/mL
- Tmax ([5]; male, SD): ~8 min
- decline of plasma concentration of dosed compound [5]: very rapid decline in concentration
- half-life ([6]; male, SD, po): ~120 min
- Tmax ([6]; male, SD, po, 100 mg/kg): ~10 min
- decline of plasma concentration of dosed compound ([6]; 100 mg/kg): slower rapid decline in concentration than for solution dosing
- logP [7]: 1.59
- contractility (fractional shortening) from baseline [8]: statistically significantly improved
- contractility over vehicle-treated animals [8]: improved
- left ventricular end-diastolic diameter ([8]; over vehicle-treated animals): reduced
- left ventricular end-systolic diameter ([8]; over vehicle-treated animals): reduced
- Leptin in blood [9]: significantly reduced
- blood cytokines BAFF, BTC, CCL7, CCL11, CSF3, CXCL10, IL-1α, IL-1β, IL-5, IL-10, IL-18, IL-19, IL-2RA, IL-7RA, LIF, MIP-10, MIP2, TNF-α, VEGF [9]: appeared to be reduced
- COL2 expression [10]: increasing
- MMP12 expression [10]: decreasing
- TNF-α expression [10]: decreasing
- chondrogenesis (expression of collagen A) [10]: promote
- acute edematous pancreatitis marked by necrosis, inflammation and edema in the pancreas (histology) [11]: efficacious in reversing

Source: patent US20250170154A1 (GreenStone Biosciences, Inc., priority 2023, published 2025)
